Results from US11312727B1, “Macrocyclic flu endonuclease inhibitors” (Janssen BioPharma, Inc., priority 2018, dated 2022).

What was measured:
[1] = test system: Influenza strain A549 A/WSN/33 (H1N1); assay: microbe, parasite or virus in culture; type: cell-based; conditions: Influenza A virus, A549, 20 h, A549 cells, influenza A/WSN/33 (H1N1), 20 hours incubation; read-out: A549_A(H1N1) EC50
in vitro = conditions: human, CC50, uninfected A549 cells, CellTiter-Glo

SMILES | EC50 [1] [nM] | CC50 (in vitro) [nM]
O=C1c2c(O)c(=O)ccn2N2CN1CCCCOc1ccc(F)cc1[C@H]2c1cccc(F)c1 (single isomer, unassigned) [Compound 32A, (18*R)-2-fluoro-18-(3-fluorophenyl)-12-hydroxy-6,7,8,9-tetrahydro-18H-10,17-methanobenzo[b]pyrido[1,2-f][1]oxa[5,6,9]triazacyclotridecine-11,13-dione] | > 1000 | > 2000
O=C1c2c(O)c(=O)ccn2N2CN1CCCCOc1ccc(F)cc1[C@@H]2c1cccc(F)c1 (single isomer, unassigned) [Compound 32B, (18*S)-2-fluoro-18-(3-fluorophenyl)-12-hydroxy-6,7,8,9-tetrahydro-18H-10,17-methanobenzo[b]pyrido[1,2-f][1]oxa[5,6,9]triazacyclotridecine-11,13-dione] | 25 | > 2000
O=C1c2c(O)c(=O)ccn2N2CN1C/C=C\COc1cccc3c1[C@H]2c1ccccc1CC3 (single isomer, unassigned) [Compound 33A, (19b*R,Z)-4-hydroxy-7,10,15,19b-tetrahydro-14H-13,12-(epiprop[1]en[1]yl[3]ylidene)-6,20-methanobenzo[3,4]cyclohepta[1,2-c]pyrido[1,2-f][1]oxa[5,6,9]triazacyclotridecine-3,5-dione] | > 1000 | > 2000
O=C1c2c(O)c(=O)ccn2N2CN1C/C=C\COc1cccc3c1[C@@H]2c1ccccc1CC3 (single isomer, unassigned) [Compound 33B, (19b*S,Z)-4-hydroxy-7,10,15,19b-tetrahydro-14H-13,12-(epiprop[1]en[1]yl[3]ylidene)-6,20-methanobenzo[3,4]cyclohepta[1,2-c]pyrido[1,2-f][1]oxa[5,6,9]triazacyclotridecine-3,5-dione] | 15 | > 2000
O=C1c2c(O)c(=O)ccn2N2CN1CCCCCc1ccncc1[C@H]2c1ccccc1 (single isomer, unassigned) [Compound 34A, (18*R)-12-hydroxy-18-phenyl-5,6,7,8,9,18-hexahydro-10,17-methanodipyrido[1,2-b:4′,3′-k][1,2,5]triazacyclotridecine-11,13-dione] | 59 | > 2000
O=C1c2c(O)c(=O)ccn2N2CN1CCCCCc1ccncc1[C@@H]2c1ccccc1 (single isomer, unassigned) [Compound 34B, (18*S)-12-hydroxy-18-phenyl-5,6,7,8,9,18-hexahydro-10,17-methanodipyrido[1,2-b:4′,3′-k][1,2,5]triazacyclotridecine-11,13-dione] | > 1000 | > 2000
O=C1c2c(O)c(=O)ccn2N2CN1C/C=C\CCc1ccncc1[C@H]2c1ccccc1 (single isomer, unassigned) [Compound 35A, (18*R,*Z)-12-hydroxy-18-phenyl-5,6,9,18-tetrahydro-10,17-methanodipyrido[1,2-b:4′,3′-k][1,2,5]triazacyclotridecine-11,13-dione] | 69 | > 2000
O=C1c2c(O)c(=O)ccn2N2CN1C/C=C\CCc1ccncc1[C@@H]2c1ccccc1 (single isomer, unassigned) [Compound 35B, (18*S,*Z)-12-hydroxy-18-phenyl-5,6,9,18-tetrahydro-10,17-methanodipyrido[1,2-b:4′,3′-k][1,2,5]triazacyclotridecine-11,13-dione] | > 1000 | > 2000
O=C1c2c(O)c(=O)ccn2N2CN1C/C=C\COc1ccccc1[C@@H]2c1ccccc1F (single isomer, unassigned) [Compound 36A, (18*R,Z)-18-(2-fluorophenyl)-12-hydroxy-6,9-dihydro-18H-10,17-methanobenzo[b]pyrido[1,2-f][1]oxa[5,6,9]triazacyclotridecine-11,13-dione] | 15 | > 2000
O=C1c2c(O)c(=O)ccn2N2CN1C/C=C\COc1ccccc1[C@H]2c1ccccc1F (single isomer, unassigned) [Compound 36B, (18*S,Z)-18-(2-fluorophenyl)-12-hydroxy-6,9-dihydro-18H-10,17-methanobenzo[b]pyrido[1,2-f][1]oxa[5,6,9]triazacyclotridecine-11,13-dione] | 815 | > 2000
O=C1c2c(O)c(=O)ccn2N2CN1CC/C=C\COc1cccc3c1[C@@H]2c1ccccc1SC3 (single isomer, unassigned) [Compound 37A, (1*R,13Z)-7-hydroxy-16-oxa-23-thia-2,3,10-triazahexacyclo[15.12.1.12,10.03,8.021,30.024,29]hentriaconta-4,7,13,17,19,21(30),24(29),25,27-nonaene-6,9-dione] | 12200 | > 2000
O=C1c2c(O)c(=O)ccn2N2CN1CC/C=C\COc1cccc3c1[C@H]2c1ccccc1SC3 (single isomer, unassigned) [Compound 37B, (1*S,13Z)-7-hydroxy-16-oxa-23-thia-2,3,10-triazahexacyclo[15.12.1.12,10.03,8.021,30.024,29]hentriaconta-4,7,13,17,19,21(30),24(29),25,27-nonaene-6,9-dione] | 4 | > 200
O=C1c2c(O)c(=O)ccn2N2CN1CC/C=C/COc1cccc3c1[C@@H]2c1ccccc1SC3 (single isomer, unassigned) [Compound 37C] | > 1000 | > 2000
O=C1c2c(O)c(=O)ccn2N2CN1CC/C=C/COc1cccc3c1[C@H]2c1ccccc1SC3 (single isomer, unassigned) [Compound 37D, (1*S,13E)-7-hydroxy-16-oxa-23-thia-2,3,10-triazahexacyclo[15.12.1.12,10.03,8.021,30.024,29]hentriaconta-4,7,13,17,19,21(30),24(29),25,27-nonaene-6,9-dione] | 1 | > 200
C/C1=C/COc2ccccc2[C@@H](c2ccccc2)N2CN(C1)C(=O)c1c(O)c(=O)ccn12 (single isomer, unassigned) [Compound 38A, (18*R,Z)-12-hydroxy-8-methyl-18-phenyl-6,9-dihydro-18H-10,17-methanobenzo[b]pyrido[1,2-f][1]oxa[5,6,9]triazacyclotridecine-11,13-dione] | > 1000 | > 2000
C/C1=C/COc2ccccc2[C@H](c2ccccc2)N2CN(C1)C(=O)c1c(O)c(=O)ccn12 (single isomer, unassigned) [Compound 38B, (18*S,Z)-12-hydroxy-8-methyl-18-phenyl-6,9-dihydro-18H-10,17-methanobenzo[b]pyrido[1,2-f][1]oxa[5,6,9]triazacyclotridecine-11,13-dione] | 26 | > 2000
O=C1c2c(O)c(=O)ccn2N2CN1CCCCCc1ccccc1[C@@H]2c1ccccn1 (single isomer, unassigned) [Compound 40A, (17*R)-4-hydroxy-16-(pyridin-2-yl)-7,8,9,10,11,16-hexahydro-6,17-methanobenzo[k]pyrido[1,2-b][1,2,5]triazacyclotridecine-3,5-dione] | 30 | > 2000
O=C1c2c(O)c(=O)ccn2N2CN1CCCCCc1ccccc1[C@H]2c1ccccn1 (single isomer, unassigned) [Compound 40B, (17*S)-4-hydroxy-16-(pyridin-2-yl)-7,8,9,10,11,16-hexahydro-6,17-methanobenzo[k]pyrido[1,2-b][1,2,5]triazacyclotridecine-3,5-dione] | > 1000 | > 2000
O=C1c2c(O)c(=O)ccn2N2CN1C/C=C\COc1cc(F)c(F)cc1[C@H]2c1ccccc1 (single isomer, unassigned) [Compound 41A, (18*R,Z)-2,3-difluoro-12-hydroxy-18-phenyl-6,9-dihydro-18H-10,17-methanobenzo[b]pyrido[1,2-f][1]oxa[5,6,9]triazacyclotridecine-11,13-dione] | 294 | > 2000
O=C1c2c(O)c(=O)ccn2N2CN1C/C=C\COc1cc(F)c(F)cc1[C@@H]2c1ccccc1 (single isomer, unassigned) [Compound 41B, (18*S,Z)-2,3-difluoro-12-hydroxy-18-phenyl-6,9-dihydro-18H-10,17-methanobenzo[b]pyrido[1,2-f][1]oxa[5,6,9]triazacyclotridecine-11,13-dione] | 6 | > 2000
C/C1=C/CN2CN([C@H](c3ccccc3)c3ccccc3OC1)n1ccc(=O)c(O)c1C2=O (single isomer, unassigned) [Compound 44A, (18*R,*Z)-12-hydroxy-7-methyl-18-phenyl-6,9-dihydro-18H-10,17-methanobenzo[b]pyrido[1,2-f][1]oxa[5,6,9]triazacyclotridecine-11,13-dione] | > 100 | > 200
C/C1=C/CN2CN([C@@H](c3ccccc3)c3ccccc3OC1)n1ccc(=O)c(O)c1C2=O (single isomer, unassigned) [Compound 44B, (18*S,*Z)-12-hydroxy-7-methyl-18-phenyl-6,9-dihydro-18H-10,17-methanobenzo[b]pyrido[1,2-f][1]oxa[5,6,9]triazacyclotridecine-11,13-dione] | > 10000 | > 20000
O=C1c2c(O)c(=O)ccn2N2CN1C/C=C\COc1ccccc1[C@H]2c1ccc(F)c(F)c1 (single isomer, unassigned) [Compound 45A, (18*R,Z)-18-(3,4-difluorophenyl)-12-hydroxy-6,9-dihydro-18H-10,17-methanobenzo[b]pyrido[1,2-f][1]oxa[5,6,9]triazacyclotridecine-11,13-dione] | > 1000 | > 2000
O=C1c2c(O)c(=O)ccn2N2CN1C/C=C\COc1ccccc1[C@@H]2c1ccc(F)c(F)c1 (single isomer, unassigned) [Compound 45B, (18*S,Z)-18-(3,4-difluorophenyl)-12-hydroxy-6,9-dihydro-18H-10,17-methanobenzo[b]pyrido[1,2-f][1]oxa[5,6,9]triazacyclotridecine-11,13-dione] | 14 | > 200
